The test has as its target T1, human cloned 5-HT6 receptors (Homo sapiens, UniProt P50406).
T1 construct: expressed in transfected cells; host or cells: HeLa cells
In kind it is binding. The settings on record: for % Inhibition / inhibition at 1 µM: displacement of [3H]-LSD; for Ki: [3H]-LSD 3.0 nM, Hela cell membranes, read-out: 5-HT6 Binding Ki. The protocol:
This operation is repeated.
The reaction is allowed to proceed in the dark for 120 min at room temperature, at which time, the bound ligand-receptor complex is filtered off on a 96 well unifilter with a Packard Filtermate® 196 Harvester. The bound complex caught on the filter disk is allowed to air dry and the radioactivity is measured in a Packard TopCount® equipped with six photomultiplier detectors, after the addition of 40.0 μl Microscint®-20 scintillant to each shallow well. The unifilter plate is heat-sealed and counted in a PackardTopCount® with a tritium efficiency of 31.0%.
Specific binding to the 5-HT6 receptor is defined as the total radioactivity bound less the amount bound in the presence of 10.0 μM unlabeled methiothepin. Binding in the presence of varying concentrations of test compound is expressed as a percentage of specific binding in the absence of test compound. The results are plotted as logit % bound versus log concentration of test compound. Nonlinear regression analysis of data points with a computer assisted program Prism® yields both the IC50 and the Ki values of test compounds with 95% confidence limits.
The amount of displacement by the test compound is given in percent (%) inhibition and is derived from the following equation: [formula] where B0 is the amount of CPM bound in the presence of the testing agent. NSB represents the CPM bound in the presence of a saturating concentration of a displacer and TB represents the total amount of CPM bound at zero (0) concentration of test compound.
Alternatively, a linear regression line of decline of data points is plotted, from which the IC50 value can be read off and the Ki value determined by solving the following equation: [formula] where L is the concentration of the radioactive ligand used and KD is the dissociation constant of the ligand for the receptor, both expressed in nM.
On the technique in general: In a radioligand displacement assay an active substance lowers the binding of a labelled ligand.

Counter-ions that a name gives are not always drawn. Like-named read-outs stand apart in the source and are kept apart here.

T1 sequence (P50406 whole entry): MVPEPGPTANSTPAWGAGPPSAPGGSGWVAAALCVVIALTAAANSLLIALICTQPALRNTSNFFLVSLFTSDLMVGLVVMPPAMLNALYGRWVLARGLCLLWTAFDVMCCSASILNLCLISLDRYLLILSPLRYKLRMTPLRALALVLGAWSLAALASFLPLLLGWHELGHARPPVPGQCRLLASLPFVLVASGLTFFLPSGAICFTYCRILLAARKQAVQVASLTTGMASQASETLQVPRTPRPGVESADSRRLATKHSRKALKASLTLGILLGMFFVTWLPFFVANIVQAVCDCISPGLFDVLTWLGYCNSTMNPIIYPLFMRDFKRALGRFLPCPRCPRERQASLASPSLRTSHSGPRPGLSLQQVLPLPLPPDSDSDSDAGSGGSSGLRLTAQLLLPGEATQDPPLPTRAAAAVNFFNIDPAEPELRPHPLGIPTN

One may read the % Inhibition as the change of the read-out against control, counted positive when it falls. Consider “2-[3-(2-chloro-phenyl)-1-(1,2-diphenyl-1H-indol-3-yl)-allylidene]hydrazinecarboximidamide [Example 88]”, for which, under “test compound dose 1000 nM”, the “% Inhibition” value was 37.5%.

“2-{[2-(3-thienyl)-1H-indol-3-yl]-ethylidene}hydrazinecarboximidamide [Example 139]”: the “% Inhibition” value (test compound dose 100 nM) is recorded as 60.1%.

A word on the Ki: it is a measure of affinity in units of concentration, obtained from inhibition or displacement. As for `C/C(=N\NC(=N)N)c1c[nH]c2ccc(NS(=O)(=O)c3ccccc3)cc12` [Example 7, (Z)-2-{1-[5-[(Phenylsulfonyl)amino]-1H-indol-3yl]ethylidene}hydrazinecarboximidamide Hydrochloride], the inhibitory constant (Ki) was found to be 1 nM.

In the case of `C/C(=N\NC(=N)N)c1cn(C)c2ccc(NS(=O)(=O)c3ccccc3)cc12` [Example 8, (Z)-2-{-1-[1-methyl-5-[(phenylsulfonyl)amino]-1H-indol-3-yl]ethylidene}hydrazinecarboximidamide Hydrochloride], the Ki is 2 nM.

What is called inhibition is the share of the control response that was lost under treatment. Take `CC(=NNC(=N)N)c1cn(C)c2ccc(NS(=O)(=O)c3ccc(N)cc3)cc12` [Example 10]: the inhibitory constant (Ki) came to 4 nM. This compound yielded an inhibition at 1 µM (test compound dose 1000 nM) of 98.7%.

Turning to `CC(=NNC(=N)N)c1cn(C)c2ccc(NS(=O)(=O)c3sc4ccc(Cl)cc4c3C)cc12` [Example 16], the inhibition constant Ki was 7 nM. The compound also yielded an inhibition at 1 µM (test compound dose 1000 nM) of 98.7%.

On to `COc1ccc(S(=O)(=O)Nc2ccc3[nH]cc(C(C)=NNC(=N)N)c3c2)cc1` [Example 19], for which the inhibitory constant (Ki) was determined as 1 nM. The same compound had an inhibition at 1 µM (test compound dose 1000 nM) of 97.4%.

In the case of `COc1ccc(S(=O)(=O)Nc2ccc3c(c2)c(C(C)=NNC(=N)N)cn3C)cc1` [Example 20], the Ki was 3 nM. This compound yielded an inhibition at 1 µM (test compound dose 1000 nM) of 99%.

For the compound `COc1ccc(S(=O)(=O)Nc2ccc3c(c2)c(C(C)=NNC(=N)N)cn3C)cc1OC` [Example 23], the Ki came out at 3 nM. Also, at 1 µM the inhibition (test compound dose 1000 nM) was 99.4%.

As to `CC(=NNC(=N)N)c1cn(C)c2ccc(NS(=O)(=O)c3ccccc3Br)cc12` [Example 25], the inhibitory constant (Ki) was determined as 1 nM. For the setting “test compound dose 1000 nM”, this compound yielded an inhibition at 1 µM of 99%.

With `CC(=NNC(=N)N)c1cn(C)c2ccc(NS(=O)(=O)c3ccc(Cl)cc3)cc12` [Example 29], the Ki stood at 4 nM. This compound also came in with an inhibition at 1 µM (test compound dose 1000 nM) of 98.4%.

On to `[H]/N=C(/N)NN=C(C)c1c[nH]c2ccc(NS(=O)(=O)c3ccc(-c4ccccc4)cc3)cc12` [Example 35, (Z)-2-[1-[5-[(4-biphenylsulfonyl)amino]-1H-indol-3-yl]ethylidene]hydrazinecarboximidamide], for which 1 µM produced 96.4% inhibition (test compound dose 1000 nM).

For the setting “test compound dose 1000 nM”, `N=C(N)N/N=C/c1c(-c2ccccc2)[nH]c2ccccc12` [Example 42, 2-(2-Phenyl-1H-indol-3-ylmethylene)hydrazinecarboximidamide] gave an inhibition at 1 µM of 82.1%.

`C/C(=N\NC(=N)N)c1c(-c2ccccc2)[nH]c2ccccc12` [Example 43, 2-[1-(2-Phenyl-1H-indol-3-yl)ethylidene]hydrazine-carboximidamide]: the inhibition at 1 µM (test compound dose 1000 nM) worked out at 93.3%.

For the compound `N=C(N)NN=Cc1c(-c2ccc(Cl)cc2)[nH]c2ccccc12` [Example 44, 2-[2-(4-chlorophenyl)-1H-indol-3-ylmethylene]hydrazinecarboximidamide], the Ki stood at 18 nM.

Consider `Clc1ccc(-c2[nH]c3ccccc3c2C=NNC2=NCCCN2)cc1` [Example 45, N-[2-(4-chlorophenyl)-1H-indol-3-ylmethylene]-N′-(1,4,5,6-tetrahydropyrimidin-2-yl)hydrazine], for which the inhibition at 1 µM (test compound dose 1000 nM) worked out at 68.5%.

Turning to `CN(N=Cc1c(-c2ccc(Cl)cc2)[nH]c2ccccc12)C1=NCCN1` [Example 46, N′-[2-(4-chlorophenyl)-1H-indol-3-ylmethylene]-N-(4,5-dihydro-1H-imidazol-2-yl)-N-methylhydrazine], the Ki worked out at 10 nM. For the setting “test compound dose 1000 nM”, the inhibition at 1 µM was determined as 96.5%.

On to `Clc1ccc(-c2[nH]c3ccccc3c2C=NNC2=NCCN2)cc1` [Example 47, N-[2-(4-chlorophenyl)-1H-indol-3-ylmethylene]-N′-(4,5-dihydro-1H-imidazol-2-yl)hydrazine], for which the inhibition constant Ki turned out to be 20.2 nM.

In turn, `N=C(N)NN=Cc1c(-c2ccc(F)c(Cl)c2)[nH]c2ccccc12` [Example 48, 2-[2-(3-chloro-4-fluoro-phenyl)-1H-indol-3-ylmethylene]hydrazinecarboximidamide] yielded an inhibition at 1 µM (test compound dose 1000 nM) of 88.6%.

For `CN(N=Cc1c(-c2ccc(F)c(Cl)c2)[nH]c2ccccc12)C1=NCCN1` [Example 49, N′-[2-(3-chloro-4-fluoro-phenyl)-1H-indol-3-ylmethylene]-N-(4,5-dihydro-1H-imidazol-2-yl)-N-methylhydrazine], where the note is “test compound dose 1000 nM”, at 1 µM the inhibition was 93.8%.

Under “test compound dose 1000 nM”, `CN(N=Cc1c(-c2ccccc2)[nH]c2ccccc12)C1=NCCN1` [Example 50, N-(4,5-dihydro-1H-imidazol-2-yl)-N′-(2-phenyl-1H-indol-3-ylmethylene)-N-methylhydrazine] showed an inhibition at 1 µM of 96.2%.

Turning to `N=C(N)NN=Cc1c(-c2ccc3ccccc3c2)[nH]c2ccccc12` [Example 51, 2-{[2-(naphthalen-2-yl)-1H-indol-3-yl]methylene}hydrazinecarboximidamide], the inhibitory constant (Ki) was found to be 109 nM.

As for `N=C(N)NN=Cc1c(-c2ccc(F)cc2)[nH]c2ccccc12` [Example 52, 2-[2-(4-fluorophenyl)-1H-indol-3-ylmethylene]hydrazinecarboximidamide], the inhibitory constant (Ki) was found to be 29 nM.

`N=C(N)NN=C(Cc1ccc(Cl)cc1)c1c(-c2ccc(Cl)cc2)[nH]c2ccccc12` [Example 53, 2-{1-[2-(4-chloro-phenyl)-1H-indol-3-yl]-2-(4-chloro-phenyl)-ethylidene}hydrazinecarboximidamide] had an inhibition at 1 µM (test compound dose 1000 nM) of 33.7%.

As for `N=C(N)NN=C(c1c(-c2ccccc2)[nH]c2ccccc12)C1CCCCC1` [Example 54, 2-[cyclohexyl-(2-phenyl-1H-indol-3-yl)-methylene]hydrazinecarboximidamide], under “test compound dose 1000 nM”, the inhibition at 1 µM is 27%.

The compound `N=C(N)NN=C(c1c(-c2ccc(Cl)cc2)[nH]c2ccccc12)C1CCCCC1` [Example 55, 2-{[2-(4-chloro-phenyl)-1H-indol-3-yl]-cyclohexyl-methylene}hydrazinecarboximidamide] came in with an inhibition at 1 µM (test compound dose 1000 nM) of 28.5%.

Turning to `N=C(N)NN=C(c1c(-c2ccc(F)c(Cl)c2)[nH]c2ccccc12)C1CCCCC1` [Example 56, 2-{[2-(3-chloro-4-fluoro-phenyl)-1H-indol-3-yl]-cyclohexyl-methylene}hydrazinecarboximidamide], the inhibition at 1 µM (test compound dose 1000 nM) is 33.9%.

Take `CC(C)C(=NNC(=N)N)c1c(-c2ccc(Cl)cc2)[nH]c2ccccc12` [Example 57, 2-{[2-(4-chloro-phenyl)-1H-indol-3-yl]-2-methyl-propylidene}hydrazinecarboximidamide]: the “% Inhibition” value (test compound dose 1000 nM) was determined as 74.6%.

For the compound `N=C(N)NN=C(Cc1ccccc1)c1c(-c2ccccc2)[nH]c2ccccc12` [Example 59, 2-[2-phenyl-1-(2-phenyl-1H-indol-3-yl)-ethylidene]hydrazinecarboximidamide], the inhibition at 1 µM (test compound dose 1000 nM) is 24.4%.

`N=C(N)NN=C(Cc1ccccc1)c1c(-c2ccc(Cl)cc2)[nH]c2ccccc12` [Example 60, 2-{1-[2-(4-chloro-phenyl)-1H-indol-3-yl]-2-phenyl-ethylidene}hydrazinecarboximidamide] had an inhibition at 1 µM (test compound dose 1000 nM) of 49.5%.

In the case of `N=C(N)NN=C(Cc1ccccc1)c1c(-c2ccc(F)c(Cl)c2)[nH]c2ccccc12` [Example 61, 2-{1-[2-(3-chloro-4-fluoro-phenyl)-1H-indol-3-yl]-2-phenyl-ethylidene}hydrazinecarboximidamide], at 1 µM the inhibition (test compound dose 1000 nM) was 83.9%.

On to `CC(C)CC(=NNC(=N)N)c1c(-c2ccc(Cl)cc2)[nH]c2ccccc12` [Example 62, 2-{1-[2-(4-chloro-phenyl)-1H-indol-3-yl]-3-methyl-butylidene}hydrazinecarboximidamide], for which the inhibition at 1 µM (test compound dose 1000 nM) is 78.2%.

Regarding `N=C(N)NN=C(C=Cc1ccccc1Cl)c1c(-c2ccc(Cl)cc2)[nH]c2ccccc12` [Example 63, 2-{3-(2-chloro-phenyl)-1-[2-(4-chloro-phenyl)-1H-indol-3-yl]-allylidene}hydrazinecarboximidamide], 1 µM produced 31.7% inhibition (test compound dose 1000 nM).

On to `CC(=NNC(=N)N)c1c(-c2ccc(Cl)cc2)[nH]c2ccccc12` [Example 64, 2-{1-[2-(4-chloro-phenyl)-1H-indol-3-yl]-ethylidene}hydrazinecarboximidamide], for which the Ki worked out at 17 nM. For the setting “test compound dose 1000 nM”, this compound displayed an inhibition at 1 µM of 98.5%.

`CC(=NNC(=N)N)c1c(-c2ccc(F)c(Cl)c2)[nH]c2ccccc12` [Example 65, 2-{1-[2-(3-chloro-4-fluoro-phenyl)-1H-indol-3-yl]-ethylidene}hydrazinecarboximidamide] gave an inhibition at 1 µM (test compound dose 1000 nM) of 87.2%.

Take `CN(N=C(c1ccc(Cl)cc1)c1c(-c2ccccc2)[nH]c2ccccc12)C1=NCCN1` [Example 66, N′-[(4-chlorophenyl)-(2-phenyl-1H-indol-3-yl)-methylene]-N-(4,5,-dihydro-1H-imidazol-2-yl)-N-methylhydrazine]: where the note is “test compound dose 1000 nM”, the “% Inhibition” value worked out at 18.1%.

The record behind these values is patent publication US6951881B2, “(1-substituted-indol-3-yl) alkylidenehydrazinecarboximidamide derivatives as 5-hydroxytryptamine-6 ligands” (Wyeth, priority 2002, dated 2005).
